Structures can show the parent of a compound that is named as a salt. Where two headings read alike, the source gives them in different places.
How the values were obtained:
Male, Fischer 344 rats = test: Block of Conditioned Avoidance Responding (Rat) test (CAR); settings: for CAR 5 mg/kg IP Administration (% change CAR) / CAR 15 mg/kg IP Administration (% change CAR): negative number = blockade of CAR
Procedure, shortened: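 Trained rats at 90% avoidance ran 60-trial sessions with a 15-sec light/tone conditioned stimulus, then a 0.7 mA shock. Vehicle was given on Day 1 and test compound on Day 2, with matched route and pretreatment time. The % change in CAR versus Day 1 and % escape failures are group means, with escape loss at 5 mg/kg unless noted.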

[1] = target: T1, D-2 (dopamine-2) receptors (Rattus norvegicus, UniProt P61169); test: biochemical; type: binding, male, Wistar rats; settings: rat striatum P2 fraction, 3H-spiperone 0.05 nM; read-out: Receptor Binding (Ki nM) D2
T1 construct: The D2 assay employed a P2 fraction from the striatum, the ligand ^3H-spiperone at a concentration of 0.05 nM; from tissue; host or cells: rat striatum, P2 fraction (synaptosomal membranes), male Wistar rats
T1 sequence (P61169 whole entry): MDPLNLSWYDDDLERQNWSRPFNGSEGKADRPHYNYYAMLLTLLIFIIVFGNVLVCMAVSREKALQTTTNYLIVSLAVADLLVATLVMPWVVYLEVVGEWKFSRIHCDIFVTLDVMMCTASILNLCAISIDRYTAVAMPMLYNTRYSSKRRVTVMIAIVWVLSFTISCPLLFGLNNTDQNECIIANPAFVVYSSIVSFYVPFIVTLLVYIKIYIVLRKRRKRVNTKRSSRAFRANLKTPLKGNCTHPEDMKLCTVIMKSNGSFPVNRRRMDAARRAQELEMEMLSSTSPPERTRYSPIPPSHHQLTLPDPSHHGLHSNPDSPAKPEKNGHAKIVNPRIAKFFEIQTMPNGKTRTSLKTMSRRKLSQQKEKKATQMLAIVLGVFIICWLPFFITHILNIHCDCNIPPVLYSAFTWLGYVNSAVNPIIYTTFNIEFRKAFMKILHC
Procedure: The dopamine D2 binding activity of compounds was determined using a P2 fraction (synaptosomal membranes) prepared from male, Wistar rats.
The data from this assay were analyzed by calculating the percent inhibition of the binding of the tritiated ligands by given concentrations of the test compound. Kl values, where given, were obtained from the logit analysis of concentration-inhibition curves.

Male Charles-River rats = test: Rat Glass Bead Test (propulsive motility of the distal colon); type: in vivo; settings: mean expulsion time of glass bead
Procedure: The rat glass bead test is used to evaluate the action of compounds on propulsive motility of the distal colon. Male Charles-River rats weighing 50-90 grams are fasted for at least 18 hours in individual cages with water provided. Groups of rats are then dosed by the indicated route at the appropriate pretreatment time. A 4 mm glass bead is then inserted 3.5 cm into the distal colon through the anus using a 4 mm diameter glass rod. Rats are then placed in open top glass jars and observed for 60 minutes. The time for expulsion of the bead is noted for each rat. Rats not expelling the bead after 60 minutes are necropsied and the presence of the bead in the colon confirmed. […] Statistical analysis is done using one way analysis of variance and Fisher's LSD comparison. A probability of less than 0.05 is considered to be statistically significant.

[2] = tested on: male, Sprague-Dawley rats; test: Catalepsy Test in Rats; settings: 50 mg/kg IP
Procedure: The catalepsy test is taken to evaluate the liability of anti-psychotics to produce extra-pyramidal side effects.
The forepaws of male, Sprague-Dawley rats obtained from Charles River (170-240 g) were gently placed on a black cork (3.5 cm high) and the time until the forepaw was removed was recorded. Each rat was given three trials with a maximum time of 60 sec on the cork. The sum of the three trials was taken as the score for each rat. Percent catalepsy was defined as the percent of 180 sec (maximum time) that a rat permitted its forepaw to rest on the cork. […] In each test session, two control groups were used; animals treated with saline (or vehicle) served as a negative control and animals treated with haloperidol were a positive control.

[3] = tested on: apomorphine-induced emesis in the dog; test: Block of Apomorphine-Induced Emesis In Dogs; type: in vivo; settings: for ED50: Canis lupus familiaris, read-out: ED50 and 95% confidence limits, apomorphine HCl 1 mg/kg s.c.; for inhibition of apomorphine-induced emesis in the dog: in vivo
Procedure: This latter test is used in the preclinical evaluation of antipsychotics, and it also implies that the compounds could be used clinically for the treatment of emesis.
This procedure was modified from that described in Janssen, P. A. J.; Niemegeers, C. J. E.; Schellekens, K. Arzn.-Forch. […] The animals were treated with a test dose of apomorphine HCI to produce retching, and the effectiveness of a test compound in blocking that retching is determined. […] Following one of several pretreatments, a challenge dose of 1 mg/kg apomorphine HCl s.c. was given and the number of retches that occurred during the following 20 min period was recorded. At the start of the series, and after one week on testing, all dogs were pretreated with saline before the challenge dose of apomorphine HCI was administered. All of the saline-pretreated animals retched. […] Data were analyzed to determine the ED50 dose for blocking apomorphine HCI-induced emesis.

[4] = Overall statement on the antipsychotic screens (CAR test and D-2 affinity); settings: as far as tested
Source text: (§1) The antipsychotic activity of the compounds of the invention may be determined by the Block of Conditioned Avoidance Responding (Rat) test (CAR), references being Cook, L. and E. Weidley in Ann.

[5] = Overall statement on the other non-antipsychotic screens; settings: screens in which they have been tested to date
Source text: as §1

[6] = tested on: spontaneously hypertensive rats (SHR model); test: Spontaneously Hypertensive Rat Test (SHR); type: in vivo; settings: 30 mg/kg p.o.
Procedure: Compounds #37 and 87 were also evaluated in the fully recovered, unanesthetized, unrestrained spontaneously hypertensive rats (SHR model) which is described hereinafter. They were deemed to be active because at doses of 30 mg/kg p.o. they caused a drop in the mean arterial pressure. For compound #37 the drop was 26 mm of mercury with an onset of 0.5 h and a duration of 3.5 h. For compound no. 87 the drop was 37 mm of mercury with an onset of 0.25 h and a duration of 5.75 h.
Adult male 350-450 g SHR [Tac:N(SHR)FBR], Taconic Farms, Germantown, New York are prepared for direct measurement of arterial pressure, housed in individual cages, and maintained on constant intraarterial infusion to assure catheter patency. Rats are permitted a 7-day postoperative recovery period to allow complete restoration of salt/water balance and body weight. Rats are assigned to vehicle or drug treatment groups (n=3/group). Drugs are uniformly suspended in 1% methylcellulose vehicle and given orally by gavage. Parameters are sampled continuously from the conscious, unrestrained rats and averaged every 15 min for the first 2 h and then hourly through 24 h after dosing. In order to take diurnal changes that are not drug related into account, 24 h timecourse curves for each parameter in drug treated SHR are compared to those from the concurrent control group. Since the average standard between-subject error is about 5 mm of mercury for arterial pressure parameters and about 11 bpm for heart rate, differences from concurrent control of greater than 10 mm of mercury and 22 bpm (2 SEM) are considered drug-related activity. Onset and duration are calculated from any pattern that achieves a maximum difference that meets these criteria.

[7] = intravenous (IV) administration
[8] = oral administration, 1 h pretreatment
[9] = oral administration, 4 h pretreatment

| (Escape Loss) % failures to escape (Male, Fischer 344 rats; at CAR 5 mg/kg IP) [%] | Ki [1] [nM] | Compound | CAR 5 mg/kg IP Administration (% change CAR) (Male, Fischer 344 rats) [%] | Glass bead expulsion time (Male Charles-River rats; IP, 1.0 mg/kg) [min] | Catalepsy (%) ([2]; Pre-Reaction Time 60 min) | potential antipsychotic activity in either of the screens [4] | also measured |
| --- | --- | --- | --- | --- | --- | --- | --- |
| 14 | 79 | CC(C)Oc1cc(F)ccc1N1CCN(Cc2cccc(C(=O)N3CCOCC3)c2)CC1 [Compound 80] | -91 | 14 | 84.8 | – | Catalepsy (%) ([2]; Pre-Reaction Time 240 min): 62.0% |
| – | – | CC(C)Oc1ccccc1N1CCN(Cc2ccccc2C(=O)N2CCCCC2)CC1.Cl.Cl [Compound 111, 1-[2-[[4-[2-(1-Methylethoxy)phenyl]-1-piperazinyl]methyl]benzoyl]piperidine Dihydrochloride] | – | 11 | 52 | – | Catalepsy (%) ([2]; Pre-Reaction Time 240 min): 50.7% |
| 5 | – | CC(C)Oc1ccccc1N1CCN(Cc2cccc(C(=O)N3CCCCCC3)c2)CC1.Cl [Compound 54, Hexahydro-1-[3-[[4-[2-(1-methylethoxy)phenyl]-1-piperazinyl]methyl]-benzoyl]-1H-azepine monohydrochloride] | -88 | 16 | – | – | ED50 [3, 7]: 0.019 mg/kg; ED50 [3, 8]: 0.047 mg/kg; ED50 [3, 9]: 0.251 mg/kg; inhibition of apomorphine-induced emesis in the dog [3]: particularly potent inhibitors |
| – | > 1000 | O=C(c1cccc(CN2CCN(c3ncccn3)CC2)c1)N1CCC[C@H]1CO [Compound 20] | – | – | – | not exhibited potential antipsychotic activity | CAR 15 mg/kg IP Administration (% change CAR) (Male, Fischer 344 rats): -17%; (Escape Loss) % failures to escape (Male, Fischer 344 rats; at CAR 15 mg/kg IP): 1%; activity in any of the other non-antipsychotic screens [5]: not exhibited activity |
| 0 | > 1000 | O=C(c1cccc(CN2CCN(c3ccc4c(c3)OCO4)CC2)c1)N1CCCCC1 [Compound 36] | -10 | – | – | not exhibited potential antipsychotic activity | Glass bead expulsion time (Male Charles-River rats; PO, 10.0 mg/kg): 7.4 min |
| – | – | CC(C)Oc1ccccc1N1CCN(Cc2cccc(C(=O)N3CCCCC3)c2)CC1 [Compound 53, 1-[3-[[4-[2-(1-Methylethoxy)phenyl]-1-piperazinyl]methyl]benzoyl]piperidine Hydrochloride (3:2)] | – | – | 32.4 | – | CAR IP Administration (% change CAR) at 7.5 mg/kg (Male, Fischer 344 rats; 7.5 mg/kg IP): -91%; (Escape Loss) % failures to escape (Male, Fischer 344 rats; at CAR 7.5 mg/kg IP): 8%; ED50 [3, 7]: 0.03 mg/kg; ED50 [3, 8]: 0.038 mg/kg; ED50 [3, 9]: 0.263 mg/kg; inhibition of apomorphine-induced emesis in the dog [3]: particularly potent inhibitors; Catalepsy (%) ([2]; Pre-Reaction Time 240 min): 47.9% |
| – | > 1000 | COc1ccc(OC)c(N2CCN(Cc3cccc(C(=O)N4CCCC4)c3)CC2)c1 [Compound 47] | – | – | – | not exhibited potential antipsychotic activity | CAR 15 mg/kg IP Administration (% change CAR) (Male, Fischer 344 rats): 2%; (Escape Loss) % failures to escape (Male, Fischer 344 rats; at CAR 15 mg/kg IP): 0%; activity in any of the other non-antipsychotic screens [5]: not exhibited activity |
| – | > 1000 | COc1cccc(OC)c1N1CCN(Cc2cccc(C(=O)N3CCCCC3)c2)CC1 [Compound 48] | – | 14 | – | not exhibited potential antipsychotic activity | CAR 15 mg/kg IP Administration (% change CAR) (Male, Fischer 344 rats): -1%; (Escape Loss) % failures to escape (Male, Fischer 344 rats; at CAR 15 mg/kg IP): 1%; activity in any of the other non-antipsychotic screens [5]: not exhibited activity |
| 0 | 18 | O=C(c1cccc(CN2CCN(c3ccccc3Cl)CC2)c1)N1CCCCCC1 [Compound 93] | -23 | 25 | 20.0 | – | Catalepsy (%) ([2]; Pre-Reaction Time 240 min): 1.9% |
| – | > 1000 | CC1CN(Cc2cccc(C(=O)N3CCCCC3)c2)CCN1c1ccccc1 (stereo not shown) [Compound 8] | – | – | – | not exhibited potential antipsychotic activity | activity in any of the other non-antipsychotic screens [5]: not exhibited activity |
| – | 703 | CC(O)COc1ccccc1N1CCN(Cc2cccc(C(=O)N3CCCCC3)c2)CC1 (stereo not shown) [Compound 27] | – | – | – | not exhibited potential antipsychotic activity | CAR 15 mg/kg IP Administration (% change CAR) (Male, Fischer 344 rats): -8%; (Escape Loss) % failures to escape (Male, Fischer 344 rats; at CAR 15 mg/kg IP): 0% |
| – | – | O=C(c1cccc(CN2CCN(c3ccc(Cl)cc3)CC2)c1)N1CCCCC1 [Compound 87] | – | 28 | – | not exhibited potential antipsychotic activity | CAR 15 mg/kg IP Administration (% change CAR) (Male, Fischer 344 rats): -5%; (Escape Loss) % failures to escape (Male, Fischer 344 rats; at CAR 15 mg/kg IP): 0%; activity in the SHR model [6]: active; drop in the mean arterial pressure [6]: 37 mm of mercury; duration of the drop in mean arterial pressure [6]: 5.75 h; onset of the drop in mean arterial pressure [6]: 0.25 h |
| – | > 1000 | CC(C)Oc1ccccc1N1CCN(Cc2cccc(C(=O)N3CCCCC3C(=O)O)c2)CC1 (stereo not shown) [Compound 24] | – | – | – | not exhibited potential antipsychotic activity | activity in any of the other non-antipsychotic screens [5]: not exhibited activity |
| 1 | > 1000 | O=C(c1cccc(CN2CCN(c3ncccn3)CC2)c1)N1CCCCC1 [Compound 37] | -18 | – | – | not exhibited potential antipsychotic activity | Glass bead expulsion time (Male Charles-River rats; PO, 10.0 mg/kg): 25 min; activity in the SHR model [6]: active; drop in the mean arterial pressure [6]: 26 mm of mercury; duration of the drop in mean arterial pressure [6]: 3.5 h; onset of the drop in mean arterial pressure [6]: 0.5 h |
| 2 | 1.2 | CC(C)Oc1ccccc1C1CCN(Cc2cccc(C(=O)N3CCCCCC3)c2)CC1 [Compound 39] | -86 | – | 17.3 | – | – |
| – | – | O=C(CCCN1CCC(O)(c2ccc(Cl)cc2)CC1)c1ccc(F)cc1 [Haloperidol, haloperidol, reference compound] | – | – | – | – | ED50 [3, 7]: 0.023 mg/kg; ED50 [3, 8]: 0.088 mg/kg; ED50 [3, 9]: 0.028 mg/kg |
| 42 | 29 | COc1ccccc1N1CCN(Cc2cccc(C(=O)N3CCCCC3)c2)CC1 [Compound 84] | -98 | 42 | 18.8 | – | Catalepsy (%) ([2]; Pre-Reaction Time 240 min): 33.9% |
